We go through 16 compounds from patent publication US6479495B1, “Aminoalkylphenol derivatives and related compounds” (priority 1997, dated 2002).

Where a name gives a salt, the structure may show the parent alone. Read-outs that look alike come from different tables or passages of the source.

Data set [1] has as its target T1, acetylcholinesterase (Rattus norvegicus, UniProt P37136).
T1 construct: corpora striata dissected free, weighted and homogenized in 19 volumes (approximately 7 mg protein/ml) of 0.05M Phosphate Buffer; from tissue; host or cells: rat brain corpora striata, crude homogenate
T1 sequence (P37136 32-614): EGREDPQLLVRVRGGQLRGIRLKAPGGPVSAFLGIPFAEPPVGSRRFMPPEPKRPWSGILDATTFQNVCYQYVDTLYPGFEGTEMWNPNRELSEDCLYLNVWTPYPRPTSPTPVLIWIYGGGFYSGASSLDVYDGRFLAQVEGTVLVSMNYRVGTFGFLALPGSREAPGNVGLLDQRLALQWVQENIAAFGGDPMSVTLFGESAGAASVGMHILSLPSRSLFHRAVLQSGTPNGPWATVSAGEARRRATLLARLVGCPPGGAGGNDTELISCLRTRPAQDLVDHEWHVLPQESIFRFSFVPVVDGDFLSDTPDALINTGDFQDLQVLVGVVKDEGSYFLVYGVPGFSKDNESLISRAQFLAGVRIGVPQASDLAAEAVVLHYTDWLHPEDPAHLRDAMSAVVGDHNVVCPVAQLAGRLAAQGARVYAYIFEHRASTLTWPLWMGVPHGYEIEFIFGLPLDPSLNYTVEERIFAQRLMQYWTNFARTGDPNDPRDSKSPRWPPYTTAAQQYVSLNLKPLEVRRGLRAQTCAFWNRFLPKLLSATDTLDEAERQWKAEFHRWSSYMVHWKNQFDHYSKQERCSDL
In words: biochemical. Particulars: read-out: Inhibition of Acetylcholinesterase Activity IC50. How it is done:
1. 0.05M Phosphate Buffer (pH 7.2)
A solution of monobasic sodium phosphate monohydrate (6.85 g) in distilled water (100 ml) is added to a solution of dibasic sodium phosphate heptahydrate (13.4 g) and distilled water (100 ml) until a pH of 7.2 was attained. The solution was diluted 1 to 10 with distilled water.
3. 5,5-Dithiobisnitrobenzoic acid in Buffer
The 0.05M Phosphate Buffer (pH 7.2) was added to 5.5-dithiobisnitrobenzoic acid to a total volume of 100 ml, i.e., a quantity sufficient (gs) to 100 ml.
4. Stock Solution of Drug
A 2 millimolar stock solution of the test drug is prepared in a quantity sufficient of either acetic acid or dimethyl sulfoxide to volume with 5,5-dithiobisnitrobenzoic acid in Buffer. Stock Solution of Drug is serially diluted (1:10) so that the final cuvette concentration is 10^−4 molar.
Male Wistar rats are decapitated, brains rapidly removed, corpora striata dissected free, weighted and homogenized in 19 volumes (approximately 7 mg protein/ml) of 0.05M Phosphate Buffer (pH 7.2) using a Potter-Elvejhem homogenizer. A 25 μl aliquot of this suspension is added to 1 ml of the vehicle or various concentrations of the test drug and preincubated for 10 minutes at 37° C. Enzyme activity is measured with a Beckman DU-50 spectrophotometer with the following software and instrument settings:
Reagents are added to the blank and sample cuvettes as follows:
Blank values are determined for each run to control for non-enzymatic hydrolysis of substrate and these values are automatically subtracted by the Kindata program available on kinetics soft-pac module. This program also calculates the rate of absorbance change for each cuvette.
Substrate concentration is 10 millimolar diluted 1:2 in assay yielding final concentration of 5 millimolar. 5,5-dithiobisnitrobenzoicacid concentration is 0.5 millimolar yielding 0.25 millimolar final concentration. [formula]
IC50 values are calculated from log-probit analysis

[2] abbreviates: Male Wistar rat corpora striata homogenate, preincubated 10 minutes at 37° C., acetylthiocholine substrate 5 millimolar final, log-probit analysis.

For `C#CCOc1cc(C=O)ccc1OS(C)(=O)=O`, the melting point lay in the range of 81 to 83 °C. Still for that read-out and setting: under `COc1cc(CN2CCN(c3ccccc3F)CC2)ccc1OC(=O)N(C)C` stands 130 to 133 °C; under `COC1(OCCO)CCN(Cc2ccccc2)C1` (stereo not shown), 55 to 57 °C; under `CCOC(=O)COc1cc(C=O)ccc1OCc1ccccc1`, 36 to 43 °C. On the same count and under the same terms, under `CNC(=O)Oc1ccc(CN2CCN(c3ccc([N+](=O)[O-])cc3)CC2)cc1OC` stands 155 to 157 °C; under `COc1cc(CN2CCN(c3ccccc3Cl)CC2)ccc1OC(=O)N(C)C.Cl`, 190 to 193 °C. “4-(Methylaminocarbonyloxy)-3-(propargyloxy)1-(pyrrolidinomethyl)benzene Citrate [Example 17]”: the IC50 in data set [1] (setting [2]) was found to be 3.6 nM. Consider `C#CCOc1cc(CN2CCc3cc(OC)c(OC)cc3C2)ccc1OC` (as salt: hydrochloride) [Example 36, 6,7-Dimethoxy-N-[(4-methoxy)-3-(propargyloxy)phenylmethyl]-1,2,3,4-tetrahydroisoquinoline Hydrochloride], for which the melting point was 220 to 222 °C (dec.). Still for that read-out and setting: with `CNC(=O)Oc1ccc(CN2CCc3cc(OC)c(OC)cc3C2)cc1OC` (as salt: hydrochloride) [Example 42, 2-[3-Methoxy-4-(methylaminocarbonyloxy)phenylmethyl]-1-(6,7-dimethoxy)-1,2,3,4-tetrahydroisoquinoline Hydrochloride] the figure was 205 to 208 °C (dec.).

`COc1cc(CN2CCN(c3ccccc3OC)CC2)ccc1OC(=O)N(C)C` (as salt: hydrochloride) [Example 49, 1-[[4-(Dimethylaminocarbonyloxy)-3-(methoxy)phenyl]methyl]-4-(2-methoxyphenyl)piperazine Dihydrochloride] registered a melting point of 196 to 206 °C.

For the compound `CNC(=O)Oc1ccc(CN2CCN(c3ccccn3)CC2)cc1OC` [Example 35, 4-[[3-Methoxy-4-(methylaminocarbonyloxy)]phenylmethyl]-1-(pyridin-2-yl)piperazine Hydrochloride Monohydrate], the half-maximal inhibitory concentration (IC50) in data set [1] (setting [2]) stood at 536 nM.

Take `CNC(=O)Oc1cc(CN2CCN(c3ccccn3)CC2)ccc1OC` [Example 38, 4-[[4-Methoxy-3-(methylaminocarbonyloxy)]phenylmethyl]-1-(pyridin-2-yl)piperazine Dihydrochloride]: the IC50 in data set [1] (setting [2]) was 2390 nM. On to `COc1cc(CN2CCN(c3ccccn3)CC2)ccc1OC(=O)N(C)C` [Example 40], for which the melting point was in the range of 140 to 145 °C. As for `COc1cc(CN2CCN(c3ccccn3)CC2)c(Br)cc1OC(=O)N(C)C` [Example 67, N-(2-Bromo-4-[dimethylcarbamoyloxy]-5-methoxy)benzyl-N′-(pyridin-2-yl)-piperazine], the IC50 in data set [1] (setting [2]) came out at 18 nM. With `CC(c1ccc(OC(=O)N(C)C)c(F)c1)N1CCN(c2ccccn2)CC1` (stereo not shown) [Example 74, 1-[1-(4-N,N-Dimethylcarbamoyloxy-3-fuorophenyl)ethyl]-4-pyridin-2-yl-piperazine], the IC50 in data set [1] was found to be 14000 nM.

Turning to `COc1cc(C(C)N2CCN(c3ccccn3)CC2)ccc1OC(=O)N(C)C` (stereo not shown) [Example 78, 1-[1-(4-N,N-Dimethylcarbamoyloxy-3-methoxyphenyl)ethyl]-4-pyridin-2-yl-piperazine Dihydrochloride], in data set [1] (setting [2]), the IC50 is 358 nM.

In general, melting point refers to the temperature, or range, at which the solid turns liquid. What is called IC50 is the midpoint of a concentration-inhibition curve.
